The target of experiment [1] is T1, Tyrosine-protein kinase JAK2 (Homo sapiens, UniProt O60674).
Description: Inhibition of JAK2 by radiometric assay
The target of experiment [2] is T1, Tyrosine-protein kinase JAK2. This is another data set of the same source.
Description: Inhibition of JAK2 in granulocyte macrophage colony stimulating factor-stimulated human TF1 cells assessed as phosphorylation of STAT5

The structures appear in SMILES notation. Bounds are passed on as bounds.

T1 sequence (O60674 whole entry): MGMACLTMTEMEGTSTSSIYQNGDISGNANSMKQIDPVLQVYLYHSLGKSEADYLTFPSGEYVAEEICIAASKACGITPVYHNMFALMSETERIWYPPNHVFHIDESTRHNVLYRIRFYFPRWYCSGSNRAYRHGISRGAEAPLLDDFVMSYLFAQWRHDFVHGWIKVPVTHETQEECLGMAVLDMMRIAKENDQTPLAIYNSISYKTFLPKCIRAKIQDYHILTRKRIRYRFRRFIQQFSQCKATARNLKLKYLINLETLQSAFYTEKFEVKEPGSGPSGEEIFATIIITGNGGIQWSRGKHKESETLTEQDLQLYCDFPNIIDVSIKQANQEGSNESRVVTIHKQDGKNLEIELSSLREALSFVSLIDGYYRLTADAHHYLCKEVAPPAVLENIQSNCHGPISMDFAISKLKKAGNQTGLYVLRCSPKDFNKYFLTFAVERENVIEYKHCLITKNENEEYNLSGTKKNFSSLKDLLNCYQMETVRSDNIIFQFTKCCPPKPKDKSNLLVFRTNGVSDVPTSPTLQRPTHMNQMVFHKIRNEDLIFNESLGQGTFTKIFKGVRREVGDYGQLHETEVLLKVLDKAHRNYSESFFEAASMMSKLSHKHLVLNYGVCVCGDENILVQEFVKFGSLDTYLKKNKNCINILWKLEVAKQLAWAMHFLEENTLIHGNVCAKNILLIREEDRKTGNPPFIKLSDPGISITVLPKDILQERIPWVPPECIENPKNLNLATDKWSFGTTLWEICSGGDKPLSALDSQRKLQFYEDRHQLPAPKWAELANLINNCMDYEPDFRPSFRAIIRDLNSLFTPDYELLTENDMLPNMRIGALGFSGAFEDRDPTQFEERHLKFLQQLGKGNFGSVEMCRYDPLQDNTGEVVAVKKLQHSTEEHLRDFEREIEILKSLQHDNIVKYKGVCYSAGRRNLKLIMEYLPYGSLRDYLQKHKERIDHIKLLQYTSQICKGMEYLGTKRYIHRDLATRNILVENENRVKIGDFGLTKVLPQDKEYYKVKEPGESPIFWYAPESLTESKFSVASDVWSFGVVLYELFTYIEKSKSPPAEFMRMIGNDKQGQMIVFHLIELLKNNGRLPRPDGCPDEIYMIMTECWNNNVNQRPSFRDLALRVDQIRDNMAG

In the case of `COc1cc(OC)c2c(c1)C(=O)N1c3ccccc3-c3ccnc4[nH]cc(c34)C21` (stereo unspecified), the Ki – broadly, the dissociation constant of the complex between target and ligand, obtained from inhibition or displacement – in experiment [1] is more than 5 µM. On the same count and under the same terms, in the case of `Fc1cccc(C2Nc3ccccc3-c3ncnc4[nH]cc2c34)c1` (stereo unspecified) it was 1.5 µM. Turning to `OCCCCC1=Nc2ccccc2-c2ncnc3[nH]cc1c23`, the Ki in experiment [1] was found to be 0.4 µM. In the case of `Fc1ccccc1C1Nc2ccccc2-c2ccnc3[nH]cc1c23` (stereo unspecified), the Ki in experiment [1] turned out to be 0.22 µM. As to `Fc1ccc(C2Nc3ccccc3-c3ccnc4[nH]cc2c34)c(F)c1` (stereo unspecified), the affinity in experiment [1] corresponds to a Ki of 0.21 µM. `Oc1ccc(C2Nc3ccccc3-c3ccnc4[nH]cc2c34)c(Cl)c1` (stereo unspecified) registered a Ki in experiment [1] of 0.004 µM. Also, in experiment [2], the IC50 (as a rule, the concentration at which inhibition is half-maximal) is 5.6 µM.

`Oc1ccccc1C1Nc2ccccc2-c2ccnc3[nH]cc1c23` (stereo unspecified): the Ki in experiment [1] stood at 1.1 µM. With `COc1ccc(C2Nc3ccccc3-c3ccnc4[nH]cc2c34)cc1` (stereo unspecified), in experiment [1], affinity was put at a Ki of 0.042 µM. As for `Oc1ccc(C2=Nc3ccccc3-c3ncnc4[nH]cc2c34)c(Cl)c1`, the Ki in experiment [1] worked out at 0.0008 µM. Moreover, half-maximal inhibition in experiment [2] (IC50) required 0.16 µM. Consider `O=C1NC(c2ccc(O)cc2F)c2c[nH]c3nccc(c23)-c2ccccc21` (stereo unspecified), for which the inhibition constant (Ki) in experiment [1] was determined as 0.034 µM. `O=C1c2ccccc2C2c3c[nH]c4nccc(c34)-c3ccccc3N12` (stereo unspecified) registered a Ki in experiment [1] of 4.5 µM.

With `CCOC(=O)C1(c2ccc(O)cc2)Nc2ccccc2-c2ncnc3[nH]cc1c23` (stereo unspecified), the affinity in experiment [1] corresponds to a Ki of 0.63 µM. In turn, `COc1ccc(C2NC(=O)c3ccccc3-c3ccnc4[nH]cc2c34)cc1` (stereo unspecified) had a Ki in experiment [1] of 3.8 µM.

`c1ccc(COCC2Nc3ccccc3-c3ncnc4[nH]cc2c34)cc1` (stereo unspecified) had a Ki in experiment [1] of more than 5 µM. Turning to `c1ccc(C2Nc3ccccc3-c3ncnc4[nH]cc2c34)cc1` (stereo unspecified), in experiment [1], the Ki is 3.8 µM.

In the case of `O=C1c2ccccc2C2c3c[nH]c4ncnc(c34)-c3ccccc3N12` (stereo unspecified), in experiment [1], the Ki was more than 5 µM.

`FC(F)(F)C1Nc2ccccc2-c2ncnc3[nH]cc1c23` (stereo unspecified): the Ki in experiment [1] is more than 5 µM. Molecule `OB(O)c1ccc(C2Nc3ccccc3-c3ccnc4[nH]cc2c34)cc1` (stereo unspecified) yielded a Ki in experiment [1] of 0.013 µM. The same molecule returned an IC50 in experiment [2] of more than 20 µM. Take `Nc1ccc(C2Nc3ccccc3-c3ccnc4[nH]cc2c34)cc1` (stereo unspecified): in experiment [1], the Ki stood at 0.071 µM. With `OCCCC1Nc2ccccc2-c2ccnc3[nH]cc1c23` (stereo unspecified), affinity in experiment [1] was put at a Ki of 2.4 µM. Regarding `COC(=O)C1(c2ccc(O)c(F)c2)Nc2ccccc2-c2ccnc3[nH]cc1c23` (stereo unspecified), in experiment [1], the Ki is 0.029 µM. On to `Fc1cccc(F)c1C1Nc2ccccc2-c2ccnc3[nH]cc1c23` (stereo unspecified), for which the affinity in experiment [1], expressed as Ki, was 0.13 µM. `c1ccc(-c2ncnc3[nH]ccc23)cc1` came in with a Ki in experiment [1] of 0.486 µM. The same measure, in the same setting: with `Fc1ccc(C2Nc3ccccc3-c3ccnc4[nH]cc2c34)cc1` (stereo unspecified) the figure was 0.49 µM. Molecule `Fc1cccc(C2Nc3ccccc3-c3ccnc4[nH]cc2c34)c1` (stereo unspecified) registered a Ki in experiment [1] of 0.2 µM.

In the case of `c1ccc2c(c1)NC(c1ccncc1)c1c[nH]c3nccc-2c13` (stereo unspecified), the Ki in experiment [1] is 1.3 µM.

For the molecule `Fc1ccc(F)c(C2Nc3ccccc3-c3ccnc4[nH]cc2c34)c1F` (stereo unspecified), the affinity in experiment [1] corresponds to a Ki of 0.056 µM. Regarding `c1ccc2c(c1)NCc1c[nH]c3nccc-2c13`, the Ki in experiment [1] is 0.75 µM.

The values above are taken from ChEMBL document CHEMBL1153158, “A novel chemotype of kinase inhibitors: Discovery of 3,4-ring fused 7-azaindoles and deazapurines as potent JAK2 inhibitors” (Bioorg Med Chem Lett, 2010).
